From patent publication US20020164333A1, “Bifunctional molecules and vectors complexed therewith for targeted gene delivery” (The Scripps Research Institute, priority 2000, published 2002)

System: M21-L12 melanoma cells
Test: Ad-mediated gene delivery after pretreatment of cells with PI3K inhibitors
Assay type: cell-based, human
Procedure: Efficient Ad internalization via αv integrins requires activation of PI3K, a key cellular signaling molecule. […] Ad mediated gene delivery was analyzed 48 hours post infection.

Row | SMILES | inhibition of Ad-mediated gene delivery (cells pretreated 30 min with wortmannin (30 nM) or LY292004 (20 μM) before Ad.RSV.βgal complexed with D or DT, 48 hours post infection) | inhibition at 0.03 µM (Homo sapiens, read-out: inhibition of Ad-mediated gene delivery)
1 | O=c1cc(N2CCOCC2)oc2c(-c3ccccc3)cccc12 [LY294002] | ~50% | –
2 | COC[C@H]1OC(=O)c2coc3c2[C@@]1(C)C1=C(C3=O)[C@@H]2CCC(=O)[C@@]2(C)C[C@H]1OC(C)=O [Wortmannin, wortmannin] | – | ~70%
